# Experimental data published in ChEMBL document CHEMBL3526101, “Discovery and characterization of novel, potent, and selective cytochrome P450 2J2 inhibitors” (Drug Metab Dispos, 2013).
# T1: Cytochrome P450 1A2 (Homo sapiens, UniProt P05177)
# T1 sequence (P05177 whole entry): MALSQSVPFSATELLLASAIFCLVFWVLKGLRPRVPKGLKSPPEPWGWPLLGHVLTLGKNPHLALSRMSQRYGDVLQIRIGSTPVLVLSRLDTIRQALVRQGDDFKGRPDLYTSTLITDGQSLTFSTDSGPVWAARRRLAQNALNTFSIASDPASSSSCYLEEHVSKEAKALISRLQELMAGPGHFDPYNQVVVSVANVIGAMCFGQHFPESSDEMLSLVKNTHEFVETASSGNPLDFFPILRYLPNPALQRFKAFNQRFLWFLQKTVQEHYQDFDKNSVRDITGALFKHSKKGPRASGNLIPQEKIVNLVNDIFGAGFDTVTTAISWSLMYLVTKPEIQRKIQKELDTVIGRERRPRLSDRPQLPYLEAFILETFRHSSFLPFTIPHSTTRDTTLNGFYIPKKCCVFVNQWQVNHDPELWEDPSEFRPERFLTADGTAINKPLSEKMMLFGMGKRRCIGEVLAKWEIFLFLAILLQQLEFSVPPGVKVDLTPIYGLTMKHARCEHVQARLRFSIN
# T2: Cytochrome P450 2J2 (Homo sapiens, UniProt P51589)
# T2 sequence (P51589 whole entry): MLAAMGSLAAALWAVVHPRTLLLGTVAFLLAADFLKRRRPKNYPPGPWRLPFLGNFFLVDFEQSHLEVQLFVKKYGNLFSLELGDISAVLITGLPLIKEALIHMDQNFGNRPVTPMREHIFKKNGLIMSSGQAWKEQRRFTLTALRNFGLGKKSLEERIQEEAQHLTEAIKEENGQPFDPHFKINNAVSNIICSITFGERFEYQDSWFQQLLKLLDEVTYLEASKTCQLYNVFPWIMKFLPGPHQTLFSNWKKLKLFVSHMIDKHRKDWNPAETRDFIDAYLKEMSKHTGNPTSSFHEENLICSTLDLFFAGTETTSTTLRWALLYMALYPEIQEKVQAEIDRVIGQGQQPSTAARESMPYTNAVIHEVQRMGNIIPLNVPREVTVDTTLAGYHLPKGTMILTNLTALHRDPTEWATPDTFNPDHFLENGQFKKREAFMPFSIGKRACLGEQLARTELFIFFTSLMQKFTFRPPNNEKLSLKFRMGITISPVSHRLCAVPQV
# B1: Cytochrome P450 2J2 (Homo sapiens) (protein)
# chain: MLAAMGSLAAALWAVVHPRTLLLGTVAFLLAADFLKRRRPKNYPPGPWRLPFLGNFFLVDFEQSHLEVQLFVKKYGNLFSLELGDISAVLITGLPLIKEALIHMDQNFGNRPVTPMREHIFKKNGLIMSSGQAWKEQRRFTLTALRNFGLGKKSLEERIQEEAQHLTEAIKEENGQPFDPHFKINNAVSNIICSITFGERFEYQDSWFQQLLKLLDEVTYLEASKTCQLYNVFPWIMKFLPGPHQTLFSNWKKLKLFVSHMIDKHRKDWNPAETRDFIDAYLKEMSKHTGNPTSSFHEENLICSTLDLFFAGTETTSTTLRWALLYMALYPEIQEKVQAEIDRVIGQGQQPSTAARESMPYTNAVIHEVQRMGNIIPLNVPREVTVDTTLAGYHLPKGTMILTNLTALHRDPTEWATPDTFNPDHFLENGQFKKREAFMPFSIGKRACLGEQLARTELFIFFTSLMQKFTFRPPNNEKLSLKFRMGITISPVSHRLCAVPQV
# Experiments:
# [1] = Metabolic stability in human liver microsomes at 1 uM after 30 mins by LC-MS/MS method; assay type: ADME; conditions: read-out: Stability
# Cytochrome P450 2D6 = Cytochrome P450 2D6 (Homo sapiens, UniProt P10635)
# Cytochrome P450 2C9 = Cytochrome P450 2C9 (Homo sapiens, UniProt P11712)
# Cytochrome P450 2C19 = Cytochrome P450 2C19 (Homo sapiens, UniProt P33261)
# Cytochrome P450 1A2 = biological target: T1, Cytochrome P450 1A2
# Cytochrome P450 2J2 [2] = biological target: T2, Cytochrome P450 2J2
# Cytochrome P450 3A4 = Cytochrome P450 3A4 (Homo sapiens, UniProt P08684)
# Description: Inhibition of CYP3A4 in human liver microsomes using testosterone substrate by LC-MS/MS method
# Cytochrome P450 2J2 [3] = biological target: T2, Cytochrome P450 2J2; test: Drug metabolism assessed as human recombinant CYP2J2-mediated intrinsic clearance assessed per pmol protein after 30 mins; assay type: ADME; conditions: recombinant enzyme, 0.5 h
# [4] = Tmax in human; assay type: ADME, organism-based; conditions: in vivo
# [5] = substrate: COc1ccc(CCN2CCC(Nc3nc4ccccc4n3Cc3ccc(F)cc3)CC2)cc1; test: Activity of human recombinant CYP2J2 assessed as compound O-demethylation; assay type: ADME
# Cytochrome P450 2D6, sequence (P10635 whole entry): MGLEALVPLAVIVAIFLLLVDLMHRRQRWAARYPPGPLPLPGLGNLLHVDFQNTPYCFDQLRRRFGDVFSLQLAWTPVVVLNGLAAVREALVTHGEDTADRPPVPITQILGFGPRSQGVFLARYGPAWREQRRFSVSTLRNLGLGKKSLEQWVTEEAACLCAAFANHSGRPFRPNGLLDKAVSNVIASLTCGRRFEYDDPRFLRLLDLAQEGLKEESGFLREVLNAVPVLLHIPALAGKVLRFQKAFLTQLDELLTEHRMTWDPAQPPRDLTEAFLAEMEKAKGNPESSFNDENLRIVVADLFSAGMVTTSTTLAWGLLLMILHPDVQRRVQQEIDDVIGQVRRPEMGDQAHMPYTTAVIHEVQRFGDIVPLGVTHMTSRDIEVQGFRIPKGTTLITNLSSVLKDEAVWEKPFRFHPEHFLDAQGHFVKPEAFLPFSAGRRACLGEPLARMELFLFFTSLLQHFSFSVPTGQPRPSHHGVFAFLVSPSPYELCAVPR
# Cytochrome P450 2C19, sequence (P33261 whole entry): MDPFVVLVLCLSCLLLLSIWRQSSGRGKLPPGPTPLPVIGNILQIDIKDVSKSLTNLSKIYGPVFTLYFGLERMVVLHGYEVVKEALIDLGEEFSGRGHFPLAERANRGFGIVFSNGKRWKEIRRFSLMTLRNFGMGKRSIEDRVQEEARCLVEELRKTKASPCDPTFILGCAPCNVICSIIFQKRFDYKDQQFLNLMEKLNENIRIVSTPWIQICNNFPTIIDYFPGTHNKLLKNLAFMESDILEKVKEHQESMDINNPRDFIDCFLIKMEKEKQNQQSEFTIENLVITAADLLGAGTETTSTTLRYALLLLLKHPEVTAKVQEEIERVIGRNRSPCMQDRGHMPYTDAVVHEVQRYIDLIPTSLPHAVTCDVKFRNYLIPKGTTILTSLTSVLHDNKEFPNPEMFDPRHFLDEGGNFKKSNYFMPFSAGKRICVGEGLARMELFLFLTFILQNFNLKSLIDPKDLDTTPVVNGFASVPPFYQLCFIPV
# Cytochrome P450 2C9, sequence (P11712 whole entry): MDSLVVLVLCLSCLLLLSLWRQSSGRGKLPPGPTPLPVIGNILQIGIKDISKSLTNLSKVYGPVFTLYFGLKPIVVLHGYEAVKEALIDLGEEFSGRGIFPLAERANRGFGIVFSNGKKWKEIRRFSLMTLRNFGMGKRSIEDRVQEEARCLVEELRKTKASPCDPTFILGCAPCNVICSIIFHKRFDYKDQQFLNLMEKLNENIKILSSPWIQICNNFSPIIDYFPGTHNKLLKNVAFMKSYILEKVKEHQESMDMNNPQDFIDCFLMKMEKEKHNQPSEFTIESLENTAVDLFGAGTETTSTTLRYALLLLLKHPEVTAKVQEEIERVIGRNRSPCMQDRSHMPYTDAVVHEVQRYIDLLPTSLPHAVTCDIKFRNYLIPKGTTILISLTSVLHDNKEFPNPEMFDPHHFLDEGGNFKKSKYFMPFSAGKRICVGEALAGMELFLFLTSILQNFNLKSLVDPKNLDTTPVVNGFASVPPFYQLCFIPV
# Cytochrome P450 3A4, sequence (P08684 whole entry): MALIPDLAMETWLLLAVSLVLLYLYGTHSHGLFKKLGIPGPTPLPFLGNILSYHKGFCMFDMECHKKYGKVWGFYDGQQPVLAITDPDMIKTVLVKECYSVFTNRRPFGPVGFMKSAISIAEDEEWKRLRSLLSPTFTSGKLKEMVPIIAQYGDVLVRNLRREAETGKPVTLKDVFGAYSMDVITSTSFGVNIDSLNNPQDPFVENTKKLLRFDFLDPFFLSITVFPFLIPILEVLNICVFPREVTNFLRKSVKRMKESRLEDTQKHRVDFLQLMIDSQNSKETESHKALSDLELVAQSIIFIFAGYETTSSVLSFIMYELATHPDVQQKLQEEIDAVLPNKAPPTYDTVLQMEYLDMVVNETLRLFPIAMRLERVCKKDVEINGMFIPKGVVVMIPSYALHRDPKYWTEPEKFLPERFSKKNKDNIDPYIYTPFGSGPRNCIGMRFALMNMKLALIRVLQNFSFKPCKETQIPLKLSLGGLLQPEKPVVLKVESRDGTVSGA
Molecule,IC50 (Cytochrome P450 1A2),IC50 (Cytochrome P450 2J2 [2]),other results
CCCc1nc2c(C)cc(-c3nc4ccccc4n3C)cc2n1Cc1ccc(-c2ccccc2C(=O)O)cc1,> 50 µM,,"remaining at 0.5 h, 1 µM [1]: 97.7%; IC50 (Cytochrome P450 2D6): > 50 µM; IC50 (Cytochrome P450 2C9): 4.78 µM; IC50 (Cytochrome P450 2C19): > 50 µM"
CN1CCC[C@@H]1Cc1c[nH]c2ccc(CCS(=O)(=O)c3ccccc3)cc12,,> 50 µM,
COc1ccc(CCN(C)CCCC(C#N)(c2ccc(OC)c(OC)c2)C(C)C)cc1OC (stereo unspecified),> 50 µM,,
CC(=O)Nc1ccc(O)cc1 [ACETAMINOPHEN],,> 50 µM,
C=CCc1ccccc1OCC(O)CNC(C)C (stereo unspecified) [ALPRENOLOL],,> 50 µM,
CCN(CC)Cc1cc(Nc2ccnc3cc(Cl)ccc23)ccc1O [AMODIAQUINE],,,IC50 (Cytochrome P450 3A4): > 50 µM
CC1(C)S[C@@H]2[C@H](NC(=O)[C@H](N)c3ccc(O)cc3)C(=O)N2[C@H]1C(=O)O [AMOXICILLIN],,> 50 µM,
COc1ccc(CCN2CCC(Nc3nc4ccccc4n3Cc3ccc(F)cc3)CC2)cc1 [ASTEMIZOLE],,,CL (Cytochrome P450 2J2 [3]): 3.05 µL/min
CCc1oc2ccccc2c1C(=O)c1cc(Br)c(O)c(Br)c1 [BENZBROMARONE],33.1 µM,4.26 µM,IC50 (Cytochrome P450 2D6): > 50 µM
CC(C)COCC(CN(Cc1ccccc1)c1ccccc1)N1CCCC1 (stereo unspecified) [BEPRIDIL],> 50 µM,11.5 µM,IC50 (Cytochrome P450 2D6): > 50 µM
NC(=O)N1c2ccccc2C=Cc2ccccc21 [CARBAMAZEPINE],,> 50 µM,
CO/N=C(\C(=O)N[C@@H]1C(=O)N2C(C(=O)O)=C(CSc3nc(=O)c(=O)[nH]n3C)CS[C@H]12)c1csc(N)n1 [CEFTRIAXONE],,27.4 µM,
C[C@@H]1C[C@H]2[C@@H]3CCC4=CC(=O)C=C[C@]4(C)[C@@]3(F)[C@@H](O)C[C@]2(C)[C@@]1(O)C(=O)CO [DEXAMETHASONE],,> 50 µM,
COc1ccc2c(c1)[C@]13CCCC[C@@H]1[C@H](C2)N(C)CC3 [DEXTROMETHORPHAN],,> 50 µM,
CC[C@H]1OC(=O)[C@H](C)[C@@H](O[C@H]2C[C@@](C)(OC)[C@@H](O)[C@H](C)O2)[C@H](C)[C@@H](O[C@@H]2O[C@H](C)C[C@H](N(C)C)[C@H]2O)[C@](C)(O)C[C@@H](C)C(=O)[C@H](C)[C@@H](O)[C@]1(C)O [ERYTHROMYCIN],,> 50 µM,
Fc1ccc(C(c2ccc(F)cc2)N2CCN(C/C=C/c3ccccc3)CC2)cc1 [FLUNARIZINE],> 50 µM,,"Tmax [4]: 4 h; remaining at 0.5 h, 1 µM [1]: 83.8%; IC50 (Cytochrome P450 2C9): > 50 µM; IC50 (Cytochrome P450 2C19): > 50 µM"
CN(C)CCCN1c2ccccc2CCc2ccccc21 [IMIPRAMINE],,> 50 µM,
Cc1c(OCC(F)(F)F)ccnc1C[S+]([O-])c1nc2ccccc2[nH]1 (stereo unspecified) [LANSOPRAZOLE],,> 50 µM,
Cc1cccc(Nc2ccccc2C(=O)O)c1C [MEFENAMIC ACID],,> 50 µM,
COCCc1ccc(OCC(O)CNC(C)C)cc1 (stereo unspecified) [METOPROLOL],> 50 µM,,IC50 (Cytochrome P450 3A4): > 50 µM
COCC(=O)O[C@]1(CCN(C)CCCc2nc3ccccc3[nH]2)CCc2cc(F)ccc2[C@@H]1C(C)C [MIBEFRADIL],> 50 µM,2.14 µM,IC50 (Cytochrome P450 2D6): 0.84 µM; IC50 (Cytochrome P450 2C9): 28.4 µM; IC50 (Cytochrome P450 2C19): 1.32 µM
CCn1cc(C(=O)O)c(=O)c2cc(F)c(N3CCNCC3)cc21 [NORFLOXACIN],> 50 µM,,IC50 (Cytochrome P450 2C9): > 50 µM
CCCc1nc(C(C)(C)O)c(C(=O)O)n1Cc1ccc(-c2ccccc2-c2nnn[nH]2)cc1 [OLMESARTAN],,> 50 µM,
COc1ccc2[nH]c([S+]([O-])Cc3ncc(C)c(OC)c3C)nc2c1 (stereo unspecified) [OMEPRAZOLE],,> 50 µM,
CN1C(C(=O)Nc2ccccn2)=C(O)c2ccccc2S1(=O)=O [PIROXICAM],,> 50 µM,
C[C@]12C=CC(=O)C=C1CC[C@@H]1[C@@H]2[C@@H](O)C[C@@]2(C)[C@H]1CC[C@]2(O)C(=O)CO [PREDNISOLONE],,> 50 µM,
CN[C@H]1CC[C@@H](c2ccc(Cl)c(Cl)c2)c2ccccc21 [SERTRALINE],29.7 µM,18.5 µM,IC50 (Cytochrome P450 2D6): 2.88 µM; IC50 (Cytochrome P450 2C9): > 50 µM; IC50 (Cytochrome P450 2C19): 22.5 µM
Nc1ccc(S(=O)(=O)Nc2ccnn2-c2ccccc2)cc1 [SULFAPHENAZOLE],,> 50 µM,
C[C@]12C=CC(=O)C=C1CC[C@H]1[C@@H]3C[C@@H](O)[C@](O)(C(=O)CO)[C@@]3(C)C[C@H](O)[C@@]12F [TRIAMCINOLONE],> 50 µM,9.47 µM,IC50 (Cytochrome P450 2D6): > 50 µM; IC50 (Cytochrome P450 2C9): > 50 µM
B1,,,Km [5]: 0.09 µM; Vmax [5]: 0.000339 µmol/min
